Data reported in EP0188781A1, “1-Oxa-1-dethia-cephalosporin compounds and antibacterial agent comprising the same” (Merck & Co., Inc., priority 1984, dated 1986).

Key:
Experiment in all cases: Minimum inhibitory concentration (MIC) in vitro, antibacterial spectrum
Format in all cases: cell-based
[1] = system: Staphylococcus aureus Smith
[2] = system: Staphylococcus aureus 209 P JC-1
[3] = system: Escherichia coli NIHJ JC-2
[4] = system: Escherichia coli GN206
[5] = system: Salmonella typhimurium LT-2
[6] = system: Proteus mirabilis GN79
[7] = system: Proteus vulgaris GN76
[8] = system: Proteus rettgeri GN624
[9] = system: Serratia marcescens No. 2
[10] = system: Pseudomonas aeruginosa MB3833
[11] = system: Pseudomonas aeruginosa MB3829
[12] = system: Pseudomonas aeruginosa E-2
[13] = system: Streptococcus faecalis ATCC8043
[14] = system: Streptococcus faecalis W-73
[15] = system: Streptococcus faecalis W-74
[16] = system: Streptococcus faecalis W-75

Row | SMILES | Minimum inhibitory concentration (MIC) [1] | Minimum inhibitory concentration (MIC) [2] | Minimum inhibitory concentration (MIC) [3] | Minimum inhibitory concentration (MIC) [4] | Minimum inhibitory concentration (MIC) [5] | Minimum inhibitory concentration (MIC) [6] | Minimum inhibitory concentration (MIC) [7] | Minimum inhibitory concentration (MIC) [8] | Minimum inhibitory concentration (MIC) [9] | Minimum inhibitory concentration (MIC) [10] | Minimum inhibitory concentration (MIC) [11] | Minimum inhibitory concentration (MIC) [12] | Minimum inhibitory concentration (MIC) [13] | Minimum inhibitory concentration (MIC) [14] | Minimum inhibitory concentration (MIC) [15] | Minimum inhibitory concentration (MIC) [16]
1 | CO/N=C(\C(=O)N[C@@H]1C(=O)N2C(C(=O)O)=C(CSc3nc(=O)c(=O)[nH]n3C)CS[C@H]12)c1csc(N)n1 [Ceftriaxone, reference compound] | 3.13 | 1.56 | 0.10 | 0.78 | 0.05 | 0.025 | 0.025 | 0.39 | 0.10 | 50 | 12.5 | 100 | 3.13 | 100 | 100 | 1.56
2 | CO/N=C(\C(=O)N[C@@H]1C(=O)N2C(C(=O)O)=C(CSc3nc(=O)c(O)nn3C)CO[C@H]12)c1csc(N)n1 [Compound No. 3, (6R,7R)-7-[(Z)-2-(2-aminothiazol-4-yl)-2-(methoxyimino)acetamido]-3-(2,5-dihydro-6-hydroxy-2-methyl-5-oxo-1,2,4-triazin-3-yl) thiomethyl-l-oxa-l-dethia-ceph-3-em-4-carboxylic acid] | 0.78 | 0.78 | 0.10 | 3.13 | 0.05 | 0.05 | 0.10 | 0.39 | 0.39 | 25 | 12.5 | 50 | 12.5 | 50 | 50 | 0.39
3 | Cn1nc(O)c(=O)nc1SCC1=C(C(=O)O)N2C(=O)[C@@H](NC(=O)C(NC=O)c3csc(N)n3)[C@H]2OC1 (stereo partly drawn) [Compound No. 8, (6R,7R)-7-[2-(2-aminothiazol-4-yl)-2-(form-amido)acetamido]-3-(2,5-dihydro-6-hydroxy-2-methyl-5-oxo-1,2,4-triazin-3-yl)thiomethyl-l-oxa-l-dethia-ceph-3-em-4-carboxylic acid] | 1.56 | 1.56 | 0.05 | 1.56 | 0.025 | 0.10 | 100 | 0.10 | 0.20 | 100 | 100 | 100 | 25 | 100 | 50 | 6.24
